{"source": "patent US7399866B2", "about": "“Compounds, compositions, and methods” (Cytokinetics, Inc., priority 2003, dated 2008)"}
{"molecule": "CC(=O)N1CCC[C@@H](Oc2cc(F)cc(NC(=O)Nc3cccnc3)c2)C1", "note": "[Example 1, (R)-1-[3-(1-Acetyl-piperidin-3-yloxy)-5-fluoro-phenyl]-3-pyridin-3-yl-urea]", "values": [{"measurement": "melting point", "result": 145, "unit": "°C"}]}
